Data published in US20120276212A1, “COMPOSITION COMPRISING PLANT AND/OR FISH OILS AND NON-OXIDIZABLE FATTY ACID ENTITIES” (LIFE SCIENCE NUTRITION AS, priority 2004, published 2012).

Key:
[1] = degradation time in vivo of ω-oxidation blocked analogue
Source text: ω-oxidation is believed to be the main pathway for degradation of the fatty acid analogues as described with a block in the X position. Experiments were thus performed where R′ was changed to block ω-oxidation, by introducing a triple bond at the methyl end of the fatty acid analogue. […] This is important for the use of the fatty acid analogues in pharmaceutical preparation, as it may potentiate the effects of the β-oxidizable fatty acid analogues by further slowing down their breakdown.

[2] = system: mitochondrial β-oxidation in the liver; assay: activity of mitochondrial β-oxidation in the liver of fatty acid analogues; settings: in vivo
Source text: Although all fatty acid anagoges with an odd positioning of the β-oxidation blocker X away from the carboxylic end block β-oxidation, the extent of their biological effect may be variable. This is due to the difference in biological degradation time of the various compounds. The inventors have done experiments to show the effect of moving X further from the carboxylic fatty acid end. In these experiments the activity (in nmol/min/mg/protein) of mitochondrial β-oxidation in the liver of fatty acid analogues was measured with sulphur in the 3, 5 and 7 positions relative to the carboxyl end. The activities were 0.81 for sulphur in the 3rd position, 0.61 for sulphur in the 5th position, 0.58 for sulphur in the 7th position, and 0.47 for palmitic acid, the non β-oxidation blocking control. […] However, as the decline is great for going from the 3rd to 5th position, but small going from the 5th to 7th position, it is reasonable to assume that this decline will continue to be less as one moves out the chain, and thus that it will be very far out indeed before no effect (compared to the control) is seen at all.

degradation time in vivo [1] | SMILES | activity of mitochondrial β-oxidation in the liver [2] [nmol/min/mg/protein]
substantially increased degradation time | CC#CCCCCCCCCCCCSCC [3-thia-15-heptadecyn] | –
– | CCCCCCCCCCCCCCCC(=O)O [palmitic acid] | 0.47
